From paper PMC3697191 (Journal of Pharmacy & Bioallied Sciences, 2013)
Values after ≈ are worked out from the molar mass of the structure shown.

Tests used:
[1] = tested on: mouse embryonic fibroblasts cell line (NIH 3T3); conditions: SI = IC50 (NIH 3T3) / MIC (M. tuberculosis H37Rv)
[2] = in vitro; conditions: mouse
[3] = tested on: B. substilis; experiment: MIC by two-fold serial dilution; format: cell-based, Bacillus subtilis
[4] = tested on: Mycobacterium tuberculosis H37Rv; experiment: Microplate Alamar Blue assay; format: cell-based; conditions: for MIC: Mycobacterium tuberculosis, H37RV, 120 h, read-out: M. tuberculosis MIC, H37Rv, microplate Alamar Blue assay; for times more active than Pyrazinamide (MIC) / times more active than streptomycin (MIC): M. tuberculosis H37Rv

For `O=C1C(=NNc2nc(-c3ccccc3)cs2)C(N=Cc2ccc([N+](=O)[O-])cc2)=NN1c1ccccc1` [TZP4l, 3-[[(4-nitrophenyl)methylidene]amino]-1-phenyl-4-[2-(4-phenyl-1,3-thiazol-2-yl) hydrazin-1-ylidene]-4,5-dihydro-1H-pyrazol-5-one], the Selectivity index [1] was 20.32 and the IC50 [2] was over 1000 µM.
In the case of `COc1cc(C=NC2=NN(c3ccccc3)C(=O)C2=NNc2nc(-c3ccccc3)cs2)ccc1O` [TZP4j, 3-[[(4-hydroxy-3-methoxyphenyl)methylidene]amino]-1-phenyl-4-[2-(4-phenyl-1,3-thiazol-2-yl) hydrazin-1-ylidene]-4,5-dihydro-1H-pyrazol-5-one], the “times more active than Ciprofloxacin (MIC)” value [3] is reported as 2.99 and the MIC [4] is reported as 25.2 µM (≈ 12.5 µg/mL).
`O=C1C(=NNc2nc(-c3ccccc3)cs2)C(N=Cc2ccccc2O)=NN1c1ccccc1` [TZP4f, 3-[[(2-hydroxyphenyl)methylidene]amino]-1-phenyl-4-[2-(4-phenyl-1,3-thiazol-2-yl) hydrazin-1-ylidene]-4,5-dihydro-1H-pyrazol-5-one] gave a Selectivity index [1] of 24.44 and an MIC [4] of 53.6 µM (≈ 25 µg/mL).
Molecule `COc1cccc(C=NC2=NN(c3ccccc3)C(=O)C2=NNc2nc(-c3ccccc3)cs2)c1` [TZP4i, 3-[[(3-methoxyphenyl)methylidene]amino]-1-phenyl-4-[2-(4-phenyl-1,3-thiazol-2-yl) hydrazin-1-ylidene]-4,5-dihydro-1H-pyrazol-5-one] has an MIC [4] of 26 µM (≈ 12.5 µg/mL).
With `O=C1C(=NNc2nc(-c3ccccc3)cs2)C(N=Cc2ccc(Cl)cc2)=NN1c1ccccc1` [TZP4d, 3-[[(4-chlorophenyl)methylidene]amino]-1-phenyl-4-[2-(4-phenyl-1,3-thiazol-2-yl) hydrazin-1-ylidene]-4,5-dihydro-1H-pyrazol-5-one] the Selectivity index [1] was 22.37 and the IC50 [2] was over 1000 µM.
For `NC(=O)c1cnccn1` [Pyrazinamide, reference compound], the MIC [4] was 25.4 µM (≈ 3.12 µg/mL).
With `O=C1C(=NNc2nc(-c3ccccc3)cs2)C(N=Cc2ccc(O)c(O)c2)=NN1c1ccccc1` [TZP4h, 3-[[(3,4-dihydroxyphenyl)methylidene]amino]-1-phenyl-4-[2-(4-phenyl-1,3-thiazol-2-yl) hydrazin-1-ylidene]-4,5-dihydro-1H-pyrazol-5-one] the Selectivity index [1] was 199.07, the “times more active than Ciprofloxacin (MIC)” value [3] was 1.45 and the “times more active than Pyrazinamide (MIC)” value [4] was 3.9. For the same molecule, the “times more active than streptomycin (MIC)” value [4] was 1.69 and the MIC [4] was 6.48 µM (≈ 3.13 µg/mL).
With `O=C1C(=NNc2nc(-c3ccccc3)cs2)C(N=Cc2cccc(Cl)c2)=NN1c1ccccc1` [TZP4c, 3-[[(3-chlorophenyl)methylidene]amino]-1-phenyl-4-[2-(4-phenyl-1,3-thiazol-2-yl) hydrazin-1-ylidene]-4,5-dihydro-1H-pyrazol-5-one] the Selectivity index [1] was 82.85 and the IC50 [2] was over 1000 µM.
Molecule `O=C1C(=NNc2nc(-c3ccccc3)cs2)C(N=Cc2ccccc2Cl)=NN1c1ccccc1` [TZP4b, 3-[[(2-chlorophenyl)methylidene]amino]-1-phenyl-4-[2-(4-phenyl-1,3-thiazol-2-yl) hydrazin-1-ylidene]-4,5-dihydro-1H-pyrazol-5-one] has an IC50 [2] of 990 µM.
With `O=C1C(=NNc2nc(-c3ccccc3)cs2)C(N=Cc2ccc(O)cc2O)=NN1c1ccccc1` [TZP4g, 3-[[(2,4-dihydroxyphenyl)methylidene]amino]-1-phenyl-4-[2-(4-phenyl-1,3-thiazol-2-yl) hydrazin-1-ylidene]-4,5-dihydro-1H-pyrazol-5-one] the Selectivity index [1] was 168.88, the IC50 [2] was over 1000 µM and the “times more active than Ciprofloxacin (MIC)” value [3] was 1.45. For the same molecule, the “times more active than Pyrazinamide (MIC)” value [4] was 1.69, the “times more active than streptomycin (MIC)” value [4] was 3.91 and the MIC [4] was 12.9 µM (≈ 6.25 µg/mL).
Molecule `[H]/N=C(/N)N[C@H]1[C@H](O)[C@@H](O)[C@H](O[C@@H]2O[C@@H](C)[C@](O)(C=O)[C@H]2O[C@@H]2O[C@@H](CO)[C@H](O)[C@@H](O)[C@@H]2NC)[C@@H](N/C(N)=N\[H])[C@@H]1O` [Streptomycin, reference compound] has an MIC [4] of 11 µM (≈ 6.4 µg/mL).
With `CN(C)c1ccc(C=NC2=NN(c3ccccc3)C(=O)C2=NNc2nc(-c3ccccc3)cs2)cc1` [TZP4k, 3-[{[4-(dimethylamino)phenyl]methylidene}amino]-1-phenyl-4-[2-(4-phenyl-1,3-thiazol-2-yl) hydrazin-1-ylidene]-4,5-dihydro-1H-pyrazol-5-one] the MIC [4] was 13 µM (≈ 6.4 µg/mL).
